From patent US20250041215A1, “MULTIDOSE PRESERVATIVE-FREE (MDPF) OPHTHALMIC DOSE DELIVERY WITH ADDITION OF FORMULATION SURFACTANTS” (ALCON INC., priority 2023, published 2025)

Test: Surface tension of ophthalmic composition with added surfactant (Biolin Sigma 700/701 tensiometer)
Assay type: physicochemical
Conditions: surfactant added at 0.1% w/v to ophthalmic composition A or B, FIGS. 4-6

| change of surface tension of the ophthalmic composition | change of surface tension of the ophthalmic composition (listed as tyloxapol) | Substance |
| --- | --- | --- |
| surface tension was lowered |  | polyoxyl 40 stearate |
| surface tension was lowered |  | polysorbate 80 |
| reduced the surface tension the most | surface tension was lowered | tyloxapol |
